{
  "source": "patent US9498532B2",
  "about": "“Antibody drug conjugates” (Novartis AG, priority 2013, dated 2016)",
  "tested_on": "CHGA119 primary gastric tumor xenograft",
  "assay": "Anti-tumor activity and host response in CHGA119 patient-derived xenograft",
  "conditions": "CHGA119-tumor bearing mice, ADCs 10 mg/kg i.v. q2wk, BGJ398 10 mg/kg p.o. qd",
  "text": "In these studies, CHGA119 tumor fragments in size of 2 mm×2 mm×2 mm were implanted subcutaneously (s.c.) into female nu/nu athymic mice. […] Tumors were calipered twice a week.",
  "data": [
    {"compound": "CCN1CCN(c2ccc(Nc3cc(N(C)C(=O)Nc4c(Cl)c(OC)cc(OC)c4Cl)ncn3)cc2)CC1", "note": "[BGJ398, 3-(2,6-Dichloro-3,5-dimethoxy-phenyl)-1-{6-[4-(4-ethyl-piperazin-1-yl)-phenylamino]-pyrimidin-4-yl}-1-methyl-urea]", "values": [
      {"measurement": "Host response % body weight change (mean ± SEM)", "value": "−3.7 ± 3", "unit": "%"},
      {"measurement": "Host response Mean body weight change (g ± SEM)", "value": "-0.8 ± 0.7", "unit": "g"},
      {"measurement": "Mean tumor volume change (mm^3 ± SEM)", "value": "386 ± 169", "unit": "mm^3"},
      {"measurement": "Survival (survivors/total)", "value": "8/8"},
      {"measurement": "Tumor response T/C (%)", "setting": "after 5 weeks of treatment", "value": 33, "unit": "%"}
    ]}
  ]
}
